In paper PMC6112376, “Comprehensive Analyses and Prioritization of Tox21 10K Chemicals Affecting Mitochondrial Function by in-Depth Mechanistic Studies” (Environmental Health Perspectives, 2018):
Structures can show the parent of a compound that is named as a salt. Where two headings read alike, the source gives them in different places.

Key:
[1] = tested on: rat primary hepatocytes
[2] = tested on: rat primary hepatocytes; test: MMP assay in rat primary hepatocytes; settings: for IC50: Rattus norvegicus, Hepatocyte
[3] = tested on: HepG2 cells; settings: cited from earlier work
[4] = tested on: HepG2 cells; test: cells; settings: Homo sapiens; for Emax: HepG2, read-out: MMP assays efficacy (%) HepG2
[5] = read-out: MMP assays IC50 (µM) Rat Hepatocytes
[6] = read-out: MMP assays IC50 (µM) qHTS-HepG2
[7] = HepG2, read-out: MMP assays IC50 (µM) HepG2
[8] = read-out: MMP assays IC50 (µM), qHTS-HepG2

| SMILES | MMP assays efficacy (%) Rat Hepatocytes [1] | IC50 [2, 5] | MMP assays efficacy (%) qHTS-HepG2 [3] | IC50 [3, 6] | IC50 [4, 7] | Emax [4] | MMP assays IC50 (µM) Rat Hepatocytes [2] | IC50 [3, 8] | IC50 ([2]; 1 h, read-out: IC50 in rat primary hepatocytes (MMP, tier-one retest)) | IC50 ([4]; HepG2, read-out: IC50 in HepG2 cells (MMP, tier-one retest)) |
| --- | --- | --- | --- | --- | --- | --- | --- | --- | --- | --- |
| COC(=O)[C@]12CCC(C)(C)C[C@H]1[C@H]1C(=O)C=C3[C@@]4(C)C=C(C#N)C(=O)C(C)(C)[C@@H]4CC[C@@]3(C)[C@]1(C)CC2 [Bardoxolone methyl] | -90±57% | 17.4 ± 2 µM | -114±5% | 5.11 ± 1.27 µM | 17.3 µM | 122% |  |  |  |  |
| CCCCCc1cc(O)c2c(c1)OC(C)(C)c1ccc(C)cc1-2 [Cannabinol] | -98±2% | 21.8 µM | -124±7% | 1.68 µM | 1.09 µM | 103% |  |  |  |  |
| CC(C)CC(=O)C1C(=O)c2ccccc2C1=O [2-Isovaleryl-1,3-indanedione] | -107±61% | 22.2 ± 11.1 µM | -99±5% | 5.24 ± 0.9 µM | 56.2 µM | 108% |  |  |  |  |
| Cl[Si](Cl)(c1ccccc1)c1ccccc1 [Dichlorodiphenylsilane] | inactive |  | -106±4% | 13 ± 9.66 µM | 22.4 µM | 109% | inactive |  |  |  |
| CC1(C)[C@H](C=C(Cl)Cl)[C@H]1C(=O)OCc1c(F)c(F)cc(F)c1F [Transfluthrin] | inactive |  | -89±13% |  | 19.4 µM | 70% | inactive | 25 ± 4.09 µM |  |  |
| O=[N+]([O-])c1ccc(Nc2ccccc2)cc1 [Compound 4-Nitro-N-phenylaniline] | -93±7% | 23.9 ± 7.05 µM | -99±15% | 7.43 ± 6.54 µM | 8.91 µM | 94% |  |  |  |  |
| Oc1c(Cl)cc(Cl)c(Cl)c1Cc1c(O)c(Cl)cc(Cl)c1Cl [Hexachlorophene] | -103±31% | 1 ± 0.74 µM | -101±7% |  | 0.63 µM | 115% |  | 0.7 ± 0.46 µM |  |  |
| CCCSP(=O)(OCC)Oc1ccc(Br)cc1Cl (centres unmarked) [Profenofos] | -61±47% | 13.2 ± 3.19 µM | -92±20% |  | 6.15 µM | 84% |  | 2.54 ± 1.84 µM |  |  |
| CCCCCc1ccc(C)cc1O [Amylmetacresol] | inactive |  | -109±16% | 11.2 ± 0.65 µM |  | 115% | inactive |  |  |  |
| CC(C)(C)c1cc([N+](=O)[O-])cc(C(C)(C)C)c1O [2,6-di-tert-butyl-4-nitrophenol] | -109±11% |  | -96±13% | 0.17 ± 0.05 µM |  | 108% |  |  | 0.29 µM | 0.11 µM |
| Oc1ccc(Cc2ccccc2)cc1 [Compound 4-Benzylphenol] | inactive |  | -124±22% | 15.9 ± 3.38 µM | 31.6 µM | 118% | inactive |  |  |  |
| CC1(C)[C@H](C(=O)O[C@H](C#N)c2cccc(Oc3ccccc3)c2)[C@@H]1C=C(Br)Br [Deltamethrin] | -65±42% | 39.8 ± 14.2 µM | -75±5% | 45.9 ± 17.9 µM | 50.1 µM | 93% |  |  |  |  |
| Cc1c(O)cccc1C(=O)N[C@@H](CSc1ccccc1)[C@H](O)CN1C[C@H]2CCCC[C@H]2C[C@H]1C(=O)NC(C)(C)C [Nelfinavir mesylate] | -61±48% | 8.68 ± 12.2 µM | -120±19% |  | 30.8 µM | 97% |  | 11.9 ± 6.92 µM |  |  |
| C[C@]12CC[C@@H]3c4ccc(O)cc4C[C@@H](CCCCCCCCC[S+]([O-])CCCC(F)(F)C(F)(F)F)[C@H]3[C@@H]1CC[C@@H]2O (some centres unmarked) [Fulvestrant] | -48±0% | 8.84 ± 12 µM | -99±7% |  | 5.48 µM | 94% |  | 5.86 ± 0.82 µM |  |  |
| CC(C)=CCC1=C(O)C(=O)c2ccccc2C1=O [Lapachol] | inactive |  | -117±24% |  | 31.6 µM | 113% | inactive | 26.1 ± 1.7 µM |  |  |
| CCCN(CCC)c1c([N+](=O)[O-])cc(C(F)(F)F)c(N)c1[N+](=O)[O-] [Prodiamine] | -95±8% | 25.4 ± 11.7 µM | -85±11% |  | 8.91 µM | 93% |  | 4.84 ± 0.56 µM |  |  |
| C[C@]12CCC(=O)C[C@@H]1CC[C@@H]1[C@@H]2CC[C@]2(C)[C@@H](O)CC[C@@H]12 [Compound 5alpha-Dihydrotestosterone] | inactive |  | -72±9% | 13.3 ± 6.16 µM | 17.3 µM | 45% | inactive |  |  |  |
| NC(=O)N1C(=O)/C(=C(\O)c2cccs2)c2cc(Cl)ccc21 [Tenidap] | -96±13% | 21.1 ± 7.88 µM | -111±5% |  | 15.8 µM | 102% |  | 12.5 ± 1.19 µM |  |  |
| O=S(=O)(Oc1ccc(Cl)cc1)c1ccc(Cl)cc1 [Chlorfenson] | -62±24% | 23.7 ± 17.2 µM | -94±17% | 38.8 ± 25.4 µM | 44.7 µM | 88% |  |  |  |  |
| Cc1ccc2cc3c(ccc4ccccc43)c3c2c1CC3 [Compound 3-Methylcholanthrene] | inactive |  | -74±19% | 17.3 ± 13.2 µM | 25.2 µM | 66% | inactive |  |  |  |
| C=C1/C(=C\C=C2/CCC[C@]3(C)[C@@H]([C@H](C)CCCC(C)(C)O)CC[C@@H]23)C[C@@H](O)C[C@@H]1O [Calcitriol] | -37±8% | 22.4 ± 7.17 µM | -94±17% | 14.1 ± 4.15 µM | 15.5 µM | 75% |  |  |  |  |
| CS(=O)(=O)Nc1ccc([N+](=O)[O-])cc1Oc1ccccc1 [Nimesulide] | -117±42% | 2.74 ± 0.35 µM | -101±6% |  | 4.16 µM | 120% |  | 3.87 ± 0.23 µM |  |  |
| CCc1oc2ccccc2c1C(=O)c1cc(Br)c(O)c(Br)c1 [Benzbromarone] | -82±50% | 4.91 ± 1.79 µM | -138±3% | 7.22 ± 1.24 µM | 13.8 µM | 107% |  |  |  |  |
| CCC(C)(CC)c1cc(NC(=O)c2c(OC)cccc2OC)on1 [Isoxaben] | inactive |  | -80±23% |  | 14.1 µM | 60% | inactive | 26.3 ± 5.75 µM |  |  |
| C(=NC1CCCCC1)=NC1CCCCC1 [Dicyclohexylcarbodiimide] | inactive |  | -69±18% | 0.3 ± 0.2 µM | 0.0178 µM | 39% | inactive |  |  |  |
